Results from patent publication US20230146455A1, “TREATMENT OF INFLAMMATORY DISEASES WITH PEPTIDES AND PHARMACEUTICAL COMPOSITIONS” (Yuyu Pharma, Inc., priority 2020, published 2023).
Where “and” joins values, the source holds several entries; their conditions need not be identical. Identical values can stand only once. Like-named read-outs stand apart in the source and are kept apart here. Where a SMILES comes first, the peptide text is derived from it. [ ]: non-standard residue; d: D form. Hyp = O=C(O)[C@@H]1C[C@@H](O)CN1

Columns and labels:
[1] = Apparent permeability, 21 day cultured Caco-2 cell monolayer, bi-directional (Example 7); assay type: in vitro ADME; details: human, Caco-2, 2 μM, 120 minutes
Method: (§1) 10 mM stock solution of test compound was prepared in DMSO. 10 mM stock was diluted with 100% DMSO to prepare 0.2 mM, 0.2 mM stock was diluted with HBSS buffer to a final concentration of 2 μM.
(§2) Add 250 μL of DMEM to the basal compartment of 96 well multi-screen Caco-2 plates and seed 12000 cells/well (0.16×10^6 cells/ml) in all the apical wells required and 2 wells with only media as blank without cells. Place the Caco-2 plate in CO2 incubator at 37° C. for proliferation of cells.
(§3) The utilized media was replenished every alternate day by fresh medium. On 21st day, utilized medium was removed and washed twice with HBSS Buffer and incubated with HBSS buffer 30 min in incubator and initiated the assay.
(§4) 75 μL of test compound was added to apical wells and 250 μL of HBSS buffer with 1% DMSO was added to basal wells. Samples were collected at 120 min and processed as stated below.
(§5) 250 μL of test compound was added to basal wells and 75 μL of HBSS buffer with 1% DMSO was added to apical wells. Samples were collected at 120 min and processed as stated below.
(§6) Single point calibration curve in HBSS buffer was used. 100 μL of supernatant was diluted with 200 μL of water and submitted for LC-MS/MS analysis.
(§7) Efflux ratio=Papp of basal to apical samples/Papp of apical to basal samples
(§8) Recovery: {(dQ of Apical+dQ of Basal)/Standard dQ}*100

[2] = tested on: Caco-2 cells monolayer; assay: as above; assay type: in vitro ADME
Method: as §1, §2, §3, §4, §5, §6, §7, §8

[3] = tested on: CCL3/MIP-1 alpha; assay: Example 9 Luminex, LPS hPBMCs: CCL3/MIP-1 alpha; assay type: cell-based, human
Method: Treatment Human PBMCs were pretreated with YY-101, YDE-011 and YDE-043 or reference compound; Xiidra® at various concentration (ranging from 1 nM to 100 uM) for 2 h before stimulation. An equal volume of 0.5% DMSO was used as a vehicle control. Then, the cells were treated with LPS at 5 ug/ml. The supernatants from treated cells were harvested at 24 h and placed in a 96 well for Luminex cytokine & chemokine profiling using a Luminex 200 multiplex assay (Luminex; R&D system, USA).
The main study arm with triplicate wells per group in a 24-well plate: • 1. Blank • 2. PBMC: 0.5% DMSO • 3. PBMC+LPS (5 ug/ml) • 4. PBMC+YY-101 100 uM • 5. PBMC+YY-101 10 uM • 6. PBMC+YY-101 1 uM • 7. PBMC+YY-101 0.1 uM • 8. PBMC+YY-101 0.01 uM • 9. PBMC+LPS (5 ug/ml)+Xiidra®100 uM • 10. PBMC+LPS (5 ug/ml)+Xiidra® 10 uM • 11. PBMC+LPS (5 ug/ml)+Xiidra® 1 uM • 12. PBMC+LPS (5 ug/ml)+Xiidra®0.1 uM • 13. PBMC+LPS (5 ug/ml)+Xiidra®0.01 uM • 14. PBMC+LPS (5 ug/ml)+Xiidra®0.001 uM • 15. PBMC+LPS (5 ug/ml)+YY-101 100 uM • 16. PBMC+LPS (5 ug/ml)+YY-101 10 uM • 17. PBMC+LPS (5 ug/ml)+YY-101 1 uM • 18. PBMC+LPS (5 ug/ml)+YY-101 0.1 uM • 19. PBMC+LPS (5 ug/ml)+YY-101 0.01 uM • 20. PBMC+LPS (5 ug/ml)+YY-101 0.001 uM • 21. PBMC+LPS (5 ug/ml)+YDE-011 100 uM • 22. PBMC+LPS (5 ug/ml)+YDE-011 10 uM • 23. PBMC+LPS (5 ug/ml)+YDE-011 1 uM • 24. PBMC+LPS (5 ug/ml)+YDE-011 0.1 uM • 25. PBMC+LPS (5 ug/ml)+YDE-011 0.01 uM • 26. PBMC+LPS (5 ug/ml)+YDE-011 0.001 uM • 27. PBMC+LPS (5 ug/ml)+YDE-043 100 uM • 28. PBMC+LPS (5 ug/ml)+YDE-043 10 uM • 29. PBMC+LPS (5 ug/ml)+YDE-043 1 uM • 30. PBMC+LPS (5 ug/ml)+YDE-043 0.1 uM • 31. PBMC+LPS (5 ug/ml)+YDE-043 0.01 uM • 32. PBMC+LPS (5 ug/ml)+YDE-043 0.001 uM
Multiplex assay was used to measure 30 cytokines and chemokines. The 1:2, 1:10 and 1:200 diluted cell supernatant and serial dilution of the standard were dispensed into a 96 well plate at 50 ul/well. Then, the pre-mixed cocktail of antibody-coated magnetic beads was dispensed at 50 ul/well and incubated at room temperature for 2 h in a horizontal orbital microplate shaker at 800±500 rpm. The beads were washed using a magnetic device to prevent loss. The biotin-antibody was dispensed in 50 ul of each well and incubated at room temperature for 1 h in a shaker at 800±500 rpm. After washing, streptavidin-PE was added at 50 ul/well and incubated at room temperature for 30 min in a shaker under the same conditions. Finally, after washing, wash buffer (100 ul/well) was added to the plate and incubated in a shaker for 2 min. The Luminex™ 200 setting were set according to the manufacturer's protocol. The data was calculated with a standard five-parameter logistic nonlinear regression analysis of the data (xPonent software 4.2, USA). The levels of cytokine/chemokine are normalized to the live cell counts (1×10^5 cells/mL) and presented as concentrations per mL (pg/mL or ng/mL).

[4] = PBMC + LPS(5 ug/ml) + test article 0.001 uM, Mean
[5] = PBMC + LPS(5 ug/ml) + test article 0.001 uM, individual replicates
[6] = PBMC + LPS(5 ug/ml) + test article 0.01 uM, Mean
[7] = PBMC + LPS(5 ug/ml) + test article 0.01 uM, individual replicates
[8] = PBMC + LPS(5 ug/ml) + test article 0.1 uM, Mean
[9] = PBMC + LPS(5 ug/ml) + test article 0.1 uM, individual replicates
[10] = PBMC + LPS(5 ug/ml) + test article 1 uM, Mean
[11] = PBMC + LPS(5 ug/ml) + test article 1 uM, individual replicates
[12] = PBMC + LPS(5 ug/ml) + test article 10 uM, Mean
[13] = PBMC + LPS(5 ug/ml) + test article 10 uM, individual replicates
[14] = PBMC + LPS(5 ug/ml) + test article 100 uM, Mean
[15] = PBMC + LPS(5 ug/ml) + test article 100 uM, individual replicates
[16] = PBMC + test article 1 uM, no LPS, Mean
[17] = PBMC + test article 1 uM, no LPS, individual replicates
[18] = PBMC + test article 10 uM, no LPS, Mean
[19] = PBMC + test article 10 uM, no LPS, individual replicates
[20] = PBMC + test article 100 uM, no LPS, Mean
[21] = PBMC + test article 100 uM, no LPS, individual replicates

## CC(C)C[C@H](NC(=O)CNC(=O)[C@H](CC(C)C)NC(=O)[C@H](CCC(N)=O)NC(=O)CNC(=O)[C@@H]1C[C@@H](O)CN1)C(=O)N[C@@H](C)C(=O)NCC(=O)N1CCC[C@H]1C(=O)N[C@@H](CCCCN)C(=O)O [YDE-011] (H-[Hyp]GQLGLAGPK-OH)
[1]; read-out: A to B % Recovery
  recovery at 120 min, 2 μM: 15%
[1]; read-out: B to A % Recovery
  recovery at 120 min, 2 μM: 88.5%
[2]
  Classification (Caco-2 Permeability): LOW
[3]; [4]
  Concentration: 7478.7 pg/mL
  conc/live cell: 1414.4 pg/10^5
[3]; [5]
  Concentration: 7525.9 pg/mL and 7321.9 pg/mL and 7588.4 pg/mL
  conc/live cell: 1672.4 pg/10^5 and 1262.4 pg/10^5 and 1308.3 pg/10^5
[3]; [6]
  Concentration: 7584.1 pg/mL
  conc/live cell: 1304.0 pg/10^5
[3]; [7]
  Concentration: 7600.8 pg/mL and 7525.9 pg/mL and 7625.5 pg/mL
  conc/live cell: 1225.9 pg/10^5 and 1475.7 pg/10^5 and 1210.4 pg/10^5
[3]; [8]
  Concentration: 7103.9 pg/mL
  conc/live cell: 1250.7 pg/10^5
[3]; [9]
  Concentration: 6974.8 pg/mL and 7334.8 pg/mL and 7002.2 pg/mL
  conc/live cell: 1056.8 pg/10^5 and 1467.0 pg/10^5 and 1228.5 pg/10^5
[3]; [10]
  Concentration: 7537.7 pg/mL
  conc/live cell: 1505.0 pg/10^5
[3]; [11]
  Concentration: 7399.2 pg/mL and 7613.2 pg/mL and 7600.8 pg/mL
  conc/live cell: 1345.3 pg/10^5 and 1586.1 pg/10^5 and 1583.5 pg/10^5
[3]; [12]
  Concentration: 7734.7 pg/mL
  conc/live cell: 1473.3 pg/10^5
[3]; [13]
  Concentration: 7962.5 pg/mL and 7373.5 pg/mL and 7868.0 pg/mL
  conc/live cell: 1474.5 pg/10^5 and 1271.3 pg/10^5 and 1674.0 pg/10^5
[3]; [14]
  Concentration: 7968.8 pg/mL
  conc/live cell: 1313.3 pg/10^5
[3]; [15]
  Concentration: 8238.4 pg/mL and 8067.3 pg/mL and 7600.8 pg/mL
  conc/live cell: 1350.6 pg/10^5 and 1322.5 pg/10^5 and 1266.8 pg/10^5

## CC(C)C[C@H](NC(=O)CNC(=O)[C@H](CC(=O)O)NC(=O)[C@H](CCC(N)=O)NC(=O)CNC(=O)[C@@H]1C[C@@H](O)CN1)C(=O)N[C@@H](C)C(=O)NCC(=O)N1CCC[C@H]1C(=O)N[C@@H](CCCCN)C(=O)O [YY-101] (H-[Hyp]GQDGLAGPK-OH; N-terminus and C-terminus assumed)
[3]; [4]
  Concentration: 26885.9 pg/mL
  conc/live cell: 4200.1 pg/10^5
[3]; [5]
  Concentration: 27986.1 pg/mL and 27195.8 pg/mL and 25475.7 pg/mL
  conc/live cell: 4909.8 pg/10^5 and 3830.4 pg/10^5 and 3860.0 pg/10^5
[3]; [6]
  Concentration: 28932.4 pg/mL
  conc/live cell: 4694.7 pg/10^5
[3]; [7]
  Concentration: 29329.0 pg/mL and 29395.7 pg/mL and 28072.3 pg/mL
  conc/live cell: 4582.7 pg/10^5 and 4899.3 pg/10^5 and 4602.0 pg/10^5
[3]; [8]
  Concentration: 28457.4 pg/mL
  conc/live cell: 4886.3 pg/10^5
[3]; [9]
  Concentration: 28362.4 pg/mL and 28665.1 pg/mL and 28344.5 pg/mL
  conc/live cell: 4574.6 pg/10^5 and 5512.5 pg/10^5 and 4571.7 pg/10^5
[3]; [10]
  Concentration: 28059.0 pg/mL
  conc/live cell: 4314.1 pg/10^5
[3]; [11]
  Concentration: 28714.8 pg/mL and 27440.0 pg/mL and 28022.0 pg/mL
  conc/live cell: 4557.9 pg/10^5 and 3864.8 pg/10^5 and 4519.7 pg/10^5
[3]; [12]
  Concentration: 29972.3 pg/mL
  conc/live cell: 4549.0 pg/10^5
[3]; [13]
  Concentration: 30117.5 pg/mL and 30769.7 pg/mL and 29029.8 pg/mL
  conc/live cell: 5019.6 pg/10^5 and 4807.8 pg/10^5 and 3819.7 pg/10^5
[3]; [14]
  Concentration: 33310.8 pg/mL
  conc/live cell: 5765.5 pg/10^5
[3]; [15]
  Concentration: 35374.6 pg/mL and 31775.7 pg/mL and 32782.2 pg/mL
  conc/live cell: 5615.0 pg/10^5 and 5125.1 pg/10^5 and 6556.4 pg/10^5
[3]; PBMC + test article 0.01 uM, no LPS, Mean
  conc/live cell: 0.0 pg/10^5
[3]; PBMC + test article 0.1 uM, no LPS, Mean
  conc/live cell: 0.0 pg/10^5
[3]; [16]
  Concentration: 588.0 pg/mL
  conc/live cell: 53.5 pg/10^5
[3]; [17]
  Concentration: 588.0 pg/mL
  conc/live cell: 106.9 pg/10^5 and 0.0 pg/10^5
[3]; [18]
  Concentration: 1997.0 pg/mL
  conc/live cell: 156.0 pg/10^5
[3]; [19]
  Concentration: 1997.0 pg/mL
  conc/live cell: 312.0 pg/10^5 and 0.0 pg/10^5
[3]; [20]
  Concentration: 1030.2 pg/mL
  conc/live cell: 80.5 pg/10^5
[3]; [21]
  Concentration: 1030.2 pg/mL
  conc/live cell: 161.0 pg/10^5 and 0.0 pg/10^5
